Measured values reported in patent US10300052B2, “Methods for increasing CFTR activity” (THE UAB RESEARCH FOUNDATION, priority 2012, dated 2019).

Test system: porcine trachea CFTR−/−
Assay: μOCT imaging of airway epithelial function in porcine trachea, CFTR-/- animals
Settings: sequential ivacaftor 10 μM, forskolin 100 nM, acetylcholine 100 μM in bath, 37° C. (FIG. 7G)
Text: FIGS. 7A-7H show the effects of CFTR activators on airway epithelial function in intact porcine trachea by μOCT. FIGS. 7A-7B show representative μOCT images for a CFTR−/− (FIG. 7A) and CFTR+/+ (FIG. 7B) animal. FIGS. 7C-7F, respectively, show ASL depth (FIG. 7C), PCL depth (FIG. 7D), CBF (FIG. 7E) and MCT (FIG. 7F) measurements derived from μOCT images from CFTR−/− and CFTR+/+ animals. FIGS. 7G and 7H show the response of epithelial functional parameters, namely ASL depth and MCT in CFTR−/− (FIG. 7G) and CFTR+/+(FIG. 7H) animals in response to sequential pharmacologic intervention by ivacaftor (10 μM), forskolin (100 nM) and acetylcholine (100 μM).
To further investigate the role of CFTR activators in modulating airway epithelial cell function, CFTR activators were studied in combination with porcine trachea. In this example, porcine trachea from animals having a mutated CFTR (CFTR (−/−) and from animals having a WT-CFTR (CFTR+/+) were evaluated for ASL depth, PCL depth, CBF and MCT. The results are shown in FIGS. 7A-7H.
FIGS. 7G and 7H show the response of epithelial functional parameters, namely ASL depth, CBF and MCT in CFTR−/− and CFTR+/+ animals in response to sequential pharmacologic intervention by ivacaftor (10 μM), forskolin (100 nM) and acetylcholine (100 μM); in this experiment, acetylcholine served as a positive control to induce glandular extrusion in CF tissue). In these experiments, agonists were added to the bath solution and all experiments were conducted under physiological conditions (37° C. and 100% humidity). […] In contrast to FIG. 7G, ASL depth, CBF and MCT were all increased in response to ivacaftor treatment in CFTR+/+ animals, consistent with the results described above for human tissue.
Normal piglet tracheas were obtained from Exemplar Genetics (Sioux Center, Iowa). Tissue were dissected from one-day-old piglets and shipped on wet ice in DMEM. A modified protocol based on airway tissue handling and preparation methods developed by Ballard et al. (Am J Physiol Lung Cell Mol Physiol 298: L270-276, 2010) was employed. Tracheas were immersed in 80 mL Ringer bicarbonate solution (KRB) baths at room temperature and slowly warmed to 37° C. After four hours of pretreatment, the tracheas were removed from the KRB. Accessible mucus and liquid were aspirated from the airway lumens and the tracheal ends were cannulated so that the serosal surface was bathed in KRB [29] without contacting the mucosal surface, as previously described (Ballard et al., Am J Physiol Lung Cell Mol Physiol 298: L270-276, 2010; Martens, et al., Am J Physiol Lung Cell Mol Physiol 301: L236-246, 2011). Tracheas were allowed to equilibrate in KRB bubbled with 95% 02 and 5% CO2 at 37° C. and the luminal side exposed to conditioned air at 100% humidity for 2 hours prior to mOCT imaging (Sleigh et al., Comp Biochem Physiol A Comp Physiol 94: 359-364, 1989).
The μOCT system is a spectral-domain OCT implementation with several improvements to standard OCT that yield high resolution in both lateral and axial directions. The general layout and axial resolution characterization have been described (Liu et al., PLOSOne, 8(1), E54473-2013). A super-continuum source (Fianium SC450) provides the high-bandwidth, short coherence length light necessary for high axial resolution ([…]). A typical OCT system includes an interferometer with the reference and sample arms intersecting at a beamsplitter. The beamsplitter is replaced in μOCT with a 45 degree rod mirror, which apodizes the sample beam by introducing a circular obscuration in the center to achieve a balance of good lateral resolution (2 μm) and long depth of focus (0.2 mm). Custom software is employed to control the galvanometer scanning motors while acquiring spectral data from the line camera. […]

C=C[C@@]1(C)CC(=O)[C@]2(O)[C@@]3(C)[C@@H](O)CCC(C)(C)[C@@H]3[C@H](O)[C@H](OC(C)=O)[C@@]2(C)O1 [forskolin]
no response: ASL depth response | CBF response | MCT response
